Measured values as given in PubChem BioAssay (NCI).
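Step 1: Grow cells in 96-well plates. Step 2: Expose to compound for 48 hours at 5 concentrations. Step 3: Interpolate endpoints linearly; if unreached, use highest concentration. Abbreviation: GI50, concentration required for 50% inhibition of growth. TGI: concentration producing complete growth inhibition.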

Columns and labels:
Experiment in all cases: NCI anticancer screen, dose series, 48 h
ACHN renal = test system: ACHN renal
CAKI-1 renal = test system: CAKI-1 renal
HCT-116 colon = test system: HCT-116 colon
K-562 leukemia = test system: K-562 leukemia
LOX IMVI melanoma = test system: LOX IMVI melanoma
MCF7 breast = test system: MCF7 breast
MDA-MB-231 breast = test system: MDA-MB-231 breast
MOLT-4 leukemia = test system: MOLT-4 leukemia
NCI/ADR-RES ovarian = test system: NCI/ADR-RES ovarian
SK-MEL-5 melanoma = test system: SK-MEL-5 melanoma

| Compound | TGI (ACHN renal) [µM] | TGI (CAKI-1 renal) [µM] | TGI (HCT-116 colon) [µM] | TGI (K-562 leukemia) [µM] | TGI (LOX IMVI melanoma) [µM] | TGI (MCF7 breast) [µM] | TGI (MDA-MB-231 breast) [µM] | TGI (MOLT-4 leukemia) [µM] | TGI (NCI/ADR-RES ovarian) [µM] | TGI (SK-MEL-5 melanoma) [µM] | GI50 (ACHN renal) [µM] | GI50 (CAKI-1 renal) [µM] | GI50 (LOX IMVI melanoma) [µM] | GI50 (MOLT-4 leukemia) [µM] | GI50 (SK-MEL-5 melanoma) [µM] | GI50 (K-562 leukemia) [µM] |
| --- | --- | --- | --- | --- | --- | --- | --- | --- | --- | --- | --- | --- | --- | --- | --- | --- |
| COc1cc(/C=C/C2=NN(c3cccc(S(=O)(=O)O)c3)C3(C2)SCC(=O)N3c2nc3ccccc3s2)cc(OC)c1OC (stereo not given) | > 100 | > 100 | > 100 | > 100 | 40.7 | > 100 | > 100 | > 100 | > 100 | > 100 | – | – | – | – | – | – |
| CC(C)(CO)NC(=O)c1cccs1 | > 100 | > 100 | > 100 | > 100 | > 100 | > 100 | > 100 | > 100 | > 100 | > 100 | – | – | – | – | – | – |
| CC(=O)OC12OC(C)(C3C(=O)N(c4ccccc4)C(=O)C31)N(c1ccccc1)C2=O (stereo not given) | > 100 | > 100 | > 100 | > 100 | > 100 | > 100 | > 100 | > 100 | > 100 | > 100 | – | – | – | – | – | – |
| O=C1C=CC(=O)[C@H]2C3C=CC(C4C3C3(Cl)C(Cl)=C(Cl)[C@]4(Cl)C3(Cl)Cl)[C@@H]12 (stereo not given in full) | 20.9 | 30.2 | 12.9 | 20.4 | 11.7 | 13.4 | 16.7 | 36 | 17.4 | 15.3 | – | – | – | – | – | – |
| O=C1c2c(F)c(F)c(F)c(F)c2SC2=Nc3cccc4cccc(c34)N12 | 16.8 | 29 | 11.9 | 4.49 | 7.79 | 16 | 11.7 | 6.01 | 10.2 | 28.4 | – | – | – | – | – | – |
| CC1=C(C(=O)NCCCN(CCO)CCO)CC(C(=O)NCCCN(CCO)CCO)=C(C)N1 | > 100 | > 100 | > 100 | > 100 | > 100 | > 100 | > 100 | > 100 | > 100 | 95.7 | – | – | – | – | – | – |
| N#CCN1CCCN(CC#N)CCN(CC#N)CCCN(CC#N)CC1 | > 100 | > 100 | > 100 | > 100 | 65.8 | > 100 | > 100 | > 100 | > 100 | > 100 | – | – | – | – | – | – |
| COc1ccccc1[C@@H]1CCC2CC[C@@H](c3ccccc3OC)[N+]21Cc1ccccc1 (stereo not given in full) | 12.6 | 18.8 | 13.1 | 12.7 | 13.2 | 12.2 | 9.83 | 7.43 | 32.3 | 1.64 | – | – | – | – | – | – |
| CN(C)C1(c2cc3ccccc3s2)CCCCC1 | > 100 | > 100 | > 100 | 65.8 | 60.9 | > 100 | > 100 | > 100 | > 100 | 33.3 | – | – | – | – | – | – |
| Nc1nc(N)c2nc(CNc3ccc(C(=O)NC(CCNC(=O)c4ccccc4C(=O)O)C(=O)O)cc3)cnc2n1 (stereo not given) | > 100 | > 100 | > 100 | > 100 | > 100 | > 100 | > 100 | > 100 | > 100 | > 100 | 0.0451 | 0.0666 | 0.00439 | 0.0453 | 0.0853 | – |
| COc1c(C)c(C/C=C(\C)CCCCO)c(OC)c2ccccc12 | > 100 | 94.9 | 88.2 | 67.1 | 37.6 | > 100 | > 100 | 43.1 | > 100 | 39.5 | – | – | – | – | – | – |
| Cc1sc2nc3n(c(=O)c2c1C)N=C(c1ccccc1)CS3 | > 100 | > 100 | > 100 | > 100 | > 100 | > 100 | > 100 | > 100 | > 100 | > 100 | – | – | – | – | – | – |
| COC(=O)C1Cc2c([nH]c3ccccc23)-c2[nH]c3ccccc3c2CC(NC(C)=O)C(=O)N2CCCC2C(=O)N1 (stereo not given) | > 100 | > 100 | > 100 | > 100 | > 100 | > 100 | > 100 | > 100 | > 100 | > 100 | – | – | – | – | – | – |
| COc1cc(/C=C/c2ccc(S(N)(=O)=O)cc2)cc(OC)c1 | 66.3 | 47.3 | 27.5 | 76.7 | 34 | 75.1 | 46.6 | 43.9 | 89.7 | 29.8 | 23.5 | 19 | 18.2 | 18.6 | – | 28.7 |
| Cc1ccc(O)cc1 (tested in a mixture with another compound) | > 100 | > 100 | > 100 | > 100 | > 100 | > 100 | > 100 | > 100 | > 100 | > 100 | – | – | – | – | – | – |
| COC(=O)CN(CC1O[C@@H]2OC(C)(C)O[C@@H]2C1NC(C)=O)C(=O)OCc1ccccc1 (stereo not given in full) | > 100 | > 100 | > 100 | > 100 | > 100 | > 100 | > 100 | > 100 | > 100 | > 100 | – | – | – | – | – | – |
| CCOC(=O)C(NC(=O)c1ccccc1)(Nc1ccc(S(=O)(=O)Nc2ccc(OC)nn2)cc1)C(F)(F)F (stereo not given) | > 100 | > 100 | > 100 | > 100 | > 100 | > 100 | > 100 | > 100 | > 100 | > 100 | – | – | – | – | – | – |
| COC(=O)C1CCCN1C(=O)OC(C)(C)C (stereo not given) | > 100 | > 100 | > 100 | > 100 | > 100 | > 100 | > 100 | > 100 | > 100 | > 100 | – | – | – | – | – | – |
| N#CC(C#N)C1CN2CCC1CC2 (stereo not given) | > 100 | > 100 | > 100 | > 100 | > 100 | > 100 | > 100 | > 100 | > 100 | > 100 | – | – | – | – | – | – |
| CN(C)CCCN=c1c2ccccc2n(C)c2[nH]c(=O)n(C)c(=O)c12 | 98.3 | > 100 | > 41.8 | > 52 | 39.1 | 26.6 | 28 | 12.1 | > 100 | 18.4 | – | – | – | – | – | – |
| Cc1cc2c(cc1-c1cc3c(cc1C)C(C(C)C)=C(O)C(=O)/C3=C\Nc1ccccn1)/C(=C/Nc1ccccn1)C(=O)C(O)=C2C(C)C | > 100 | > 100 | > 100 | > 100 | > 100 | > 100 | > 100 | > 100 | > 100 | > 100 | – | – | – | – | – | – |
| O=C1c2ccccc2C(=O)c2c(NCC3CO3)cccc21 (stereo not given) | 31.4 | 77.3 | 17.6 | 17.3 | 5.38 | 7.14 | > 75 | 14.7 | 38 | > 95.7 | – | – | – | – | – | – |
| CCC1OC2C(CC=C(C)C)=C3OC(C)(O)C(C)(CC)C(=O)C3=C3OC(=O)C=C1C32 (stereo not given) | 94.6 | > 100 | 36.9 | 86.8 | 27.3 | > 100 | 41.1 | > 100 | 95.8 | 34.9 | – | – | – | – | – | – |
| COc1cc2nc3n(c(=O)c2cc1OC)CCCCC3 | > 100 | > 100 | > 100 | > 100 | > 100 | > 100 | > 100 | > 100 | > 100 | > 100 | – | – | – | – | – | – |
| O=C(NCCCc1cn[nH]c(=O)n1)c1cccc2nc3ccccc3nc12 | > 100 | > 100 | > 100 | > 100 | > 100 | > 100 | > 100 | > 100 | > 100 | > 100 | – | – | – | – | – | – |
| CCc1n[nH]c(=O)n1N=C(c1ccccc1)c1ccccc1 | > 100 | > 100 | > 100 | > 100 | > 100 | > 100 | > 100 | > 100 | > 100 | > 100 | – | – | – | – | – | – |
| CCOC(=O)c1cc([N+](=O)[O-])cc([N+](=O)[O-])c1Sc1ncnc2nc[nH]c12 | 4.17 | 6.59 | 7.69 | > 100 | 4.16 | 4.08 | 24.9 | > 26.8 | 8.4 | 27.7 | – | – | – | – | – | – |
| Cn1c(=O)oc2cc(C(=S)N3CCCCC3)ccc21 | > 100 | > 100 | > 100 | > 100 | > 100 | > 100 | > 100 | > 100 | > 100 | > 100 | – | – | – | – | – | – |
